Assay results taken from ChEMBL document CHEMBL5512597, “Triazole hybrid compounds: A new frontier in malaria treatment” (Eur J Med Chem, 2023).
In brackets after ≈: the same amount, converted by molar mass.

Tests used:
Plasmodium falciparum [1] = experiment: Antimalarial activity against Plasmodium falciparum 3D7 at asexual stage infected in erythrocytes assessed as parasite growth inhibition incubated for 72 hrs by MSF assay; type: functional, organism-based; conditions: 3D7, Erythrocyte
[2] = Cytotoxicity against African green monkey Vero cells after 72 hrs by MTT assay; type: toxicity, cell-based; conditions: chlorocebus sabaeus
Plasmodium falciparum [3] = experiment: Antimalarial activity against Plasmodium falciparum 3D7 infected in erythrocytes assessed as parasite growth inhibition incubated for 42 hrs by [3H]-hypoxanthine incorporation assay; type: functional, organism-based; conditions: 3D7, Erythrocyte
Plasmodium falciparum [4] = experiment: Antiplasmodial activity against CQ-sensitive Plasmodium falciparum NF54; type: functional, organism-based
[5] = Cytotoxicity against African green monkey Vero cells; type: toxicity, cell-based; conditions: chlorocebus sabaeus
Plasmodium falciparum [6] = experiment: Antimalarial activity against CQ-sensitive Plasmodium falciparum D6 assessed as parasite growth inhibition by LDH assay; type: functional, organism-based
Plasmodium falciparum [7] = experiment: Antimalarial activity against CQ-resistant Plasmodium falciparum W2 assessed as parasite growth inhibition by LDH assay; type: functional, organism-based
Plasmodium falciparum [8] = experiment: Antiplasmodial activity against Plasmodium falciparum 3D7 at asexual erythrocytic stage infected in human erythrocytes assessed as parasite growth inhibition incubated for 42 hrs by [3H]-hypoxanthine incorporation assay; type: functional, organism-based; conditions: 3D7, Erythrocyte
Plasmodium falciparum [9] = experiment: Antiplasmodial activity against CQ-sensitive Plasmodium falciparum F32 Tanzania assessed as parasite growth inhibition incubated for 48 hrs; type: functional, organism-based
Plasmodium falciparum [10] = experiment: Antimalarial activity against Plasmodium falciparum 3D7 assessed as inhibition of parasitemia incubated for 72 hrs by fluorescence based assay; type: functional, organism-based; conditions: 3D7, 72 h
Plasmodium falciparum [11] = experiment: Antimalarial activity against Plasmodium falciparum W2 assessed as parasite growth inhibition; type: functional, organism-based
[12] = Inhibition of Plasmodium falciparum SR21
Plasmodium falciparum [13] = experiment: Antimalarial activity against Plasmodium falciparum 3D7 assessed as inhibition of parasite proliferation; type: functional, organism-based
Plasmodium falciparum [14] = experiment: Antimalarial activity against CQ-sensitive Plasmodium falciparum 3D7 infected in human O+ erythrocytes assessed as parasite growth inhibition incubated for 48 hrs by SYBR Green I staining based analysis; type: functional, organism-based; conditions: 3D7, Erythrocyte
Plasmodium falciparum [15] = experiment: Antimalarial activity against CQ-resistant Plasmodium falciparum K1 infected in human O+ erythrocytes assessed as parasite growth inhibition incubated for 48 hrs by SYBR Green I staining based analysis; type: functional, organism-based; conditions: K1, Erythrocyte
Plasmodium falciparum [16] = experiment: Antimalarial activity against Plasmodium falciparum […] incubated for 48 hrs; type: functional, organism-based

For `O=C(Cn1cc(COc2ccc(Cl)cc2)nn1)NCCNc1ccnc2cc(Cl)ccc12`, the IC50 (Plasmodium falciparum [1]) was 0.04 µM and the CC50 at 72 h [2] was 86.8 µM.

In the case of `COc1ccc2cc3[n+](cc2c1OCc1cn(-c2ccc(S(=O)(=O)N4CCN(c5ccccn5)CC4)cc2)nn1)CCc1cc2c(cc1-3)OCO2.[Cl-]`, the IC50 (Plasmodium falciparum [3]) is reported as 1 µg/mL.

In the case of `CC1(C)[C@@H](O)CC[C@]2(C)[C@H]3C(=O)C=C4[C@@H]5C[C@@](C)(C(=O)OCc6cn(-c7ccc(C#N)cc7)nn6)CC[C@]5(C)CC[C@@]4(C)[C@]3(C)CC[C@@H]12`, the IC50 (Plasmodium falciparum [4]) is reported as 1.14 µM and the CC50 [5] is reported as 190 µM.

Molecule `O=C1c2nnn(Cc3cccc(Cl)c3)c2C(=O)c2nnn(Cc3cccc(Cl)c3)c21` has an IC50 (Plasmodium falciparum [6]) of 6.32 µM and an IC50 (Plasmodium falciparum [7]) of 7.61 µM.

In the case of `Cc1ccc(OCc2cn(-c3ccc(S(N)(=O)=O)cc3)nn2)cc1`, the IC50 (Plasmodium falciparum [8]) is reported as > 50 µg/mL.

`CC1(C)[C@@H](O)CC[C@]2(C)[C@H]3C(=O)C=C4[C@@H]5C[C@@](C)(C(=O)OCc6cn(-c7ccc(O)cc7[N+](=O)[O-])nn6)CC[C@]5(C)CC[C@@]4(C)[C@]3(C)CC[C@@H]12` gave an IC50 (Plasmodium falciparum [4]) of 0.47 µM and a CC50 [5] of 253 µM.

`O=C1C=C(OCc2cn(-c3ccc(CO)cc3)nn2)C(=O)c2ccccc21` gave an IC50 (Plasmodium falciparum [9]) of 9.7 µM.

In the case of `NS(=O)(=O)c1ccc(-n2cc(COc3ccc(F)cc3)nn2)cc1`, the IC50 (Plasmodium falciparum [8]) is reported as 15.4 µg/mL (≈ 44.2 µM).

For `CCOC(=O)c1cn(-c2ccccc2)nn1`, the IC50 (Plasmodium falciparum [10]) was 12.8 µM.

In the case of `NC1=C(n2cc(COC3=CC(=O)c4ccccc4C3=O)nn2)C(=O)c2ccccc2C1=O`, the IC50 (Plasmodium falciparum [9]) is reported as > 20 µM.

In the case of `C=C[C@H]1CN2CC[C@H]1C[C@H]2[C@H](c1ccnc2ccccc12)n1cc(C(C)(C)O)nn1`, the IC50 (Plasmodium falciparum [11]) is reported as 2.59 µM.

`Clc1cc(Cl)cc(-n2cc(/C=N/Nc3ccc(Br)cc3)nn2)c1` showed an IC50 (Plasmodium falciparum [10]) of 29.3 µM and an IC50 [12] of 12.4 µM.

Work on `Cc1ccc(-n2cc(COC(=O)[C@@]3(C)CC[C@]4(C)CC[C@]5(C)C(=CC(=O)[C@@H]6[C@@]7(C)CC[C@H](O)C(C)(C)[C@@H]7CC[C@]65C)[C@@H]4C3)nn2)cc1Cl` yielded an IC50 (Plasmodium falciparum [4]) of 4.03 µM and a CC50 [5] of 377 µM.

For `COc1ccc2cc3[n+](cc2c1OCc1cn(-c2ccc(S(=O)(=O)N4CCCCC4)cc2)nn1)CCc1cc2c(cc1-3)OCO2.[Cl-]`, the IC50 (Plasmodium falciparum [3]) was 0.8 µg/mL.

Work on `C=C[C@H]1CN2CC[C@H]1C[C@H]2[C@H](c1ccnc2ccccc12)n1cc(CO)nn1` yielded an IC50 (Plasmodium falciparum [11]) of 6.82 µM.

Molecule `CCCn1cc(CCNC(=O)[C@H](O)C(C)(C)CO)nn1` has an IC50 (Plasmodium falciparum [13]) of 5.3 µM.

With `O=S(=O)(c1ccc(-n2cc(COc3ccccc3)nn2)cc1)N1CCCCC1` the IC50 (Plasmodium falciparum [8]) was > 50 µg/mL.

`Clc1ccc2c(-c3cn(CC(c4ccccc4)c4ccccc4)nn3)ccnc2c1` showed an IC50 (Plasmodium falciparum [14]) of 91.8 µM and an IC50 (Plasmodium falciparum [15]) of 72 µM.

In the case of `CCCCCn1nncc1CCNC(=O)[C@H](O)C(C)(C)CO`, the IC50 (Plasmodium falciparum [13]) is reported as > 100 µM.

`CCCCCc1cn(CCNC(=O)[C@H](O)C(C)(C)CO)nn1` showed an IC50 (Plasmodium falciparum [13]) of 8.5 µM.

`Cc1nn(-c2ccccc2)c(-n2cncn2)c1-c1cc(-c2cc[nH]c2)nc2nc3ccccc3n12` showed an IC50 (Plasmodium falciparum [16]) of 0.092 µg/mL (≈ 0.201 µM).

Work on `Cc1nn(-c2ccccc2)c(-n2cncn2)c1-c1cc(-c2cccs2)nc2nc3ccccc3n12` yielded an IC50 (Plasmodium falciparum [16]) of 0.83 µg/mL (≈ 1.75 µM).

`CC(C)(CO)[C@@H](O)C(=O)NCCc1cn(CCc2ccccc2)nn1` showed an IC50 (Plasmodium falciparum [13]) of 5.4 µM.

Molecule `C=C[C@H]1CN2CC[C@H]1C[C@H]2[C@H](c1ccnc2ccccc12)n1cc(-c2ccccc2)nn1` has an IC50 (Plasmodium falciparum [11]) of 4.65 µM.

Work on `C=C[C@H]1CN2CC[C@H]1C[C@H]2[C@H](c1ccnc2ccccc12)n1cc(C(C)(C)N)nn1` yielded an IC50 (Plasmodium falciparum [11]) of 4.62 µM.

Molecule `COc1ccc(-c2cc(-c3c(C)nn(-c4ccccc4)c3-n3cncn3)n3c(n2)nc2ccccc23)cc1` has an IC50 (Plasmodium falciparum [16]) of 1.45 µg/mL (≈ 2.91 µM).

In the case of `O=C(Cn1cc(-c2ccccc2)nn1)NCCCNc1ccnc2cc(Cl)ccc12`, the IC50 (Plasmodium falciparum [1]) is reported as 0.137 µM.

`Clc1cccc(-n2cc(-c3cncc4ccccc34)nn2)c1` gave an IC50 (Plasmodium falciparum [14]) of 365 µM and an IC50 (Plasmodium falciparum [15]) of 95.8 µM.

Molecule `CCCCCCCCCCCn1cc(COC2=CC(=O)c3ccccc3C2=O)nn1` has an IC50 (Plasmodium falciparum [9]) of 17 µM.

In the case of `CC1(C)[C@@H](O)CC[C@]2(C)[C@H]3C(=O)C=C4[C@@H]5C[C@@](C)(C(=O)OCc6cn(-c7ccc(F)cc7)nn6)CC[C@]5(C)CC[C@@]4(C)[C@]3(C)CC[C@@H]12`, the IC50 (Plasmodium falciparum [4]) is reported as 8.82 µM and the CC50 [5] is reported as 226 µM.

For `Cc1cc(C)nc(NS(=O)(=O)c2ccc(-n3cc(COc4ccccc4)nn3)cc2)n1`, the IC50 (Plasmodium falciparum [8]) was > 50 µg/mL.

Work on `Cc1nn(-c2ccccc2)c(-n2cncn2)c1C=O` yielded an IC50 (Plasmodium falciparum [16]) of 1.32 µg/mL (≈ 5.21 µM).

`O=C1C=C(OCc2cn(C3=CC(=O)c4ccccc4C3=O)nn2)C(=O)c2ccccc21` showed an IC50 (Plasmodium falciparum [9]) of 1.9 µM.

`Cc1ccc(-c2cc(-c3c(C)nn(-c4ccccc4)c3-n3cncn3)n3c(n2)nc2ccccc23)cc1` showed an IC50 (Plasmodium falciparum [16]) of 1.5 µg/mL (≈ 3.11 µM).
